{"source": "patent US7399608B2", "about": "“Microbial detection and quantification” (Kimberly-Clark Worldwide, Inc., priority 2003, dated 2008)", "key": {"S. aureus [1]": {"test_system": "S. aureus", "test": "Semi-quantification of bacterial contamination on dye-treated paper", "set-up": "species or system Staphylococcus aureus", "protocol": "The color differences at lower concentrations were less distinct, particularly for the brush-coated sheet. A blind study was then conducted. […] Concentrations of these three drops were unknown to two of the experiment participants. After approximately 2 minutes, the drops were removed and blotted. Using the control regions, the concentrations of each sample were each visually estimated by these two persons. Both persons correctly estimated the concentration of the first sample to be 10^6 CFU/mL. […] The persons, however, incorrectly estimated the third sample to be 10^3 CFU/mL. […] The present inventors believe, however, that the concentration of the chromogen and uniformity of the coating may be readily selected to achieve accurate results at such low concentrations."}, "vaccinia": {"test_system": "vaccinia", "settings": "50-microliter droplet, 3 minutes"}, "gram-positive bacteria": {"test_system": "gram-positive bacteria", "test": "Dye solution added to bacteria spot on SCOTT towel", "protocol": "A new potential for the Reichardt's dye-based bacterial indicator was realized through testing of liquid dye with bacteria on a substrate rather than substrate-bound dye coming into contact with liquid bacteria (Example 5). This experiment focused on determining how the dye solution responds to known concentrations of bacteria residing on a surface. 100 μl of 10^8 CFU/ml gram-positive bacteria was placed on a SCOTT® towel (FIG. 9A). To this spot was added a drop of the Reichardt's dye dissolved in acetonitrile (160 mg in 10 ml acetonitrile) (9B).\nFor comparison, a spot of dye was dried onto the towel and the same amount of bacteria was added. […] Additional drops of the dye were added to the spot of bacteria (9C), and de-colorization continued until the fourth drop, at which point the purple color persisted (9D). Attempts to restore the dye color on the dye-coated SCOTT® towel by adding acetonitrile using a pipette were unsuccessful (9E)."}, "Polio virus type 1": {"test_system": "Polio virus type 1", "settings": "virus diluted serially in media, 50-microliter aliquots, 3 minutes"}, "Influenza A": {"test_system": "Influenza A", "test": "Virus detection with Reichardt's dye-coated stickers"}, "[2]": {"test_system": "vaginal fluid samples (lactobacillus, BV bacteria)", "test": "Reichardt's dye-coated stickers with normal and BV-infected vaginal fluid", "protocol": "Considering the high prevalence of vaginal infections of bacterial origin, an experiment was performed to determine the response of Reichardt's dye-coated stickers to healthy (low pH, no bacterial infection), a pH positive/Bacterial Vaginosis (BV) negative (no bacterial infection, but higher than normal pH), and pH positive/BV positive (higher than normal pH and known bacterial infection) vaginal fluid samples. […] A sticker of each concentration was tested with normal, BV positive/pH positive, and BV negative/pH positive vaginal fluid samples."}, "[3]": {"test": "UV-Vis absorption spectra in different solvents", "assay_type": "physicochemical", "description": "Reichardt's dye was used without further purification. […] Solvents used were obtained from Aldrich Chemical and were HPLC grade. A Shimadzu UV-1601 UV-Visible Spectrophotometer (Shimadzu Corporation) was used to measure the longest wavelength peak absorption of the dyes in the range of 400 to 800 nm, dissolved in three different solvents, contained in quartz curvettes. The following table contains the results of the testing with the solvents on the left side and dyes across the top."}, "[4]": {"test": "Reichardt's dye indicator with bacterial cell-wall components", "settings": "160 mg in 10 mL acetonitrile"}, "P. aeruginosa": {"test_system": "P. aeruginosa", "test": "Quantification of bacterial contamination by Delta E (hand-held spectrophotometer)", "set-up": "species or system Psuedomonas aeruginosa", "settings": "label substrate, log CFU/ml (actual) 6", "description": "More specifically, indicator strips coated with Reichardt's dye were exposed with decreasing amounts of the bacteria aliquots. A hand-held spectrophotometer was used to after application of each aliquot to determine “Delta E” value (calculated using L*, A*, and B* values) for each CFU/mL concentration. The results are set forth below in Table 4 (for paper) and Table 5 (for label). From the above, standard detection curves were generated as shown in FIGS. 5-7 for S. aureus, P. aeruginosa, and E. coli, respectively. As shown, each type of bacteria changed the color of the dye-treated substrate in a slightly different way, creating a unique standard curve. Thereafter, drops of unknown bacteria concentrations were placed on the stickers and a spectrophotometer was used to measure the “Delta E” of the resulting color. The numerical values obtained for each unknown sample set forth below in Tables 6-7. […] Although a few of the results were not completely accurate, the present inventors believe that improving the uniformity of the coating would further enhance detection accuracy."}, "[5]": {"test": "Effect of acid and strong base on Reichardt's dye de-colorization", "assay_type": "physicochemical", "description": "This was repeated with another area."}, "S. aureus [6]": {"test_system": "S. aureus", "test": "Solvent choice for Reichardt's dye coatings on SCOTT towels", "set-up": "species or system Staphylococcus aureus", "settings": "coated SCOTT towel, 100 μl aliquots of S. aureus", "protocol": "Solutions of Reichardt's dye in acetonitrile, isopropanol, and xylenes were prepared and the solutions were used to coat SCOTT® kitchen rolls towels and allowed to air-dry (FIGS. 12A and 12D)."}, "bacteria solution": {"test_system": "bacteria solution", "test": "Lateral flow device", "settings": "5 weight percent dye in iso-propanol striped on nitrocellulose HF75", "protocol": "Millipore nitrocellulose HF75 membrane (from Millipore Corporation of Billerica, Mass., USA) was laminated onto a plastic supporting card (from Millipore Corp.) having a length of approximately 30 centimeters. On both the detection zone and control zone, a solution of 5 weight percent Reichardt's dye in iso-propanol was hand striped. The membrane was dried in a laboratory oven for 1 hour at a temperature of 37.5° C. After the membrane card was taken from the oven, a cellulosic wicking pad (Cat# CFSP203000 from Millipore Corp.) was attached to one end of the membrane closer to the control zone. The other end of the card, used to attach the sample pad, was cut off. The card was then sliced into 4 mm strips to form half sticks.\nOnce the half sticks were prepared, a bacteria solution was applied to the end of the detection membrane. […] The control line color remained the same through out the test."}, "[7]": {"settings": "160 mg in 10 ml acetonitrile dried on SCOTT towel"}}}
{"molecule": "[O-]c1c(-c2ccccc2)cc(-[n+]2c(-c3ccccc3)cc(-c3ccccc3)cc2-c2ccccc2)cc1-c1ccccc1", "note": "[Reichardt's dye, 2,6-diphenyl-4-(2,4,6-triphenylpyridinio)-phenolate]", "values": [{"measurement": "visually estimated concentration, blind study third sample", "setting": "S. aureus [1]; actual 10^4 CFU/mL, dip-coated sheet", "result": "10^3 CFU/mL"}, {"measurement": "visually estimated concentration, blind study second sample", "setting": "S. aureus [1]; actual 10^5 CFU/mL, brush-coated sheet", "result": "10^5 CFU/mL"}, {"measurement": "visually estimated concentration, blind study first sample", "setting": "S. aureus [1]; actual 10^6 CFU/mL, dip-coated sheet", "result": "10^6 CFU/mL"}, {"measurement": "de-colorization of sticker by undiluted virus", "setting": "vaccinia", "result": "less than that observed for the other viruses"}, {"measurement": "de-colorization of dye solution added to bacteria spot", "setting": "gram-positive bacteria; 160 mg in 10 ml acetonitrile dropped on 100 μl of 10^8 CFU/ml on SCOTT towel", "result": "immediately de-colorized"}, {"measurement": "drop at which the purple color persisted", "setting": "gram-positive bacteria; 160 mg in 10 ml acetonitrile, 100 μl of 10^8 CFU/ml", "result": "fourth drop"}, {"measurement": "time to de-colorize when bacteria are placed onto dye dried on towel", "setting": "gram-positive bacteria; dye spot dried on cellulosic towel, same amount of bacteria", "result": "several minutes"}, {"measurement": "lowest ten-fold dilution at which stickers changed color", "setting": "Polio virus type 1", "result": "10^−6"}, {"measurement": "de-colorization of sticker by undiluted virus", "setting": "Influenza A", "result": "less than that observed for the other viruses"}, {"measurement": "de-colorization by BV negative/pH positive vaginal fluid", "setting": "[2]", "result": "only faintly de-colorized"}, {"measurement": "de-colorization by BV positive/pH positive vaginal fluid", "setting": "[2]", "result": "next sharpest de-colorization"}, {"measurement": "de-colorization by normal vaginal fluid", "setting": "[2]", "result": "sharpest de-colorization"}, {"measurement": "perceived color of solution", "setting": "[3]; Acetone", "result": "(bluish-green)"}, {"measurement": "perceived color of solution", "setting": "[3]; Acetonitrile", "result": "(Blue)"}, {"measurement": "perceived color of solution", "setting": "[3]; Methanol", "result": "(red)"}, {"measurement": "de-colorization by the other cell-wall compounds (LPS, detoxified LPS, lipoteichoic acid)", "setting": "[4]", "result": "eventual de-colorization"}, {"measurement": "de-colorization by muramic acid", "setting": "[4]; both experimental set-ups", "result": "near instantaneous de-colorization"}, {"measurement": "Delta E, unknown sample", "setting": "P. aeruginosa", "result": 4.1002}, {"measurement": "effect of 1 N NaOH on acid-decolorized dye spots", "setting": "[5]; [7]", "result": "rapid re-colorization"}, {"measurement": "effect of acetic acid and Aldrich buffer pH 2.0 on dried dye spots", "setting": "[5]; [7]", "result": "rapid de-colorization"}, {"measurement": "effect of 1 N NaOH on dye decolorized by aged chicken juice", "setting": "[5]; indicator spray 160 mg in 10 ml acetonitrile, hot plate surface", "result": "re-colorization of that small spot"}, {"measurement": "color change of coating made from acetonitrile solution", "setting": "S. aureus [6]", "result": "rapid de-colorization"}, {"measurement": "color change of coatings made from isopropanol and xylenes solutions", "setting": "S. aureus [6]", "result": "No visible color change"}, {"measurement": "color change in detection zone of lateral flow half stick", "setting": "bacteria solution", "result": "a color change was noted in the detection zone"}]}
